Results: US5514704A, “Benzothiophenes to inhibit leukotrienes” (Eli Lilly and Company, priority 1995, dated 1996)

Columns and labels:
[1] = MCII mast cell toxicity assay (XTT); format: cell-based; settings: mouse, mcii mast cells, 4-12 hours, 37° C., read-out: MCII Mast Cell Toxicity (IC50)
Description: This toxicity assay is run in parallel with the MCII mast cell LTC4 assay and serves as an indicator of compound effects on the viability and metabolic activity of the MCII cells. This "toxicity" assay is based on the ability of dehydrogenase enzymes present in viable metabolically active cells to bioreduce the tetrazolium salt XTT yielding a colored, water soluble formazan product. (see, Roehm et al.) "An improved colorimetric assay for cell proliferation and viability utilzing the tetrazolium salt XTT. J. Immunol. Methods […] (1991).
A duplicate polystyrene 96-well tissue culture plate (Costar) is set up with sensitized MCII cells, EM95 ascites, media and dilutions of the test compound as described above. The complete media is supplemented with concanavalin A induced culture supernatants from the mouse helper T cell clone D10.G4, as a source of mast cell growth factors.
Wells of the toxicity assay plate are pulsed with 25 μl XTT (Sigma) plus phenazine methosulfate (Aldrich) giving a final concentration of 0.2 mg/ml XTT and 25 μM phenazine methosulfate. The plates are incubated at 37° C. in 10% CO2 for 4-12 hours and then production of the XTT formazan product determined by measuring the optical density of the wells at a wavelength of 450 nm. The positive control on each plate is stimulated MCII cells with dimethyl sulfoxide vehicle alone and the negative control is the same reaction mixture without cells. The background negative control value is subtracted from experimental and positive control values and the data are reported as percent of positive control.
(§1) (The results are in IC50 μM). (Compound A is a compound of formula II where R6 and R7 are hydrogen, and R5 is phenyl. Compound B is a compound of formula I where R1, R2 and R3 are hydrogen. Compound C is a compound of formula II wherein R6 and R7 are methyl, and R5 is p-methoxyphenyl. Compound D is a compound of formula II wherein R1 and R2 are hydrogen, and R5 is p-hydroxyphenyl.)

cPLA2 [2] = target: T1, cPLA2 (Homo sapiens, UniProt P47712); test: cPLA2 enzyme assay, chromogenic; format: biochemical
T1 sequence (P47712 1-749): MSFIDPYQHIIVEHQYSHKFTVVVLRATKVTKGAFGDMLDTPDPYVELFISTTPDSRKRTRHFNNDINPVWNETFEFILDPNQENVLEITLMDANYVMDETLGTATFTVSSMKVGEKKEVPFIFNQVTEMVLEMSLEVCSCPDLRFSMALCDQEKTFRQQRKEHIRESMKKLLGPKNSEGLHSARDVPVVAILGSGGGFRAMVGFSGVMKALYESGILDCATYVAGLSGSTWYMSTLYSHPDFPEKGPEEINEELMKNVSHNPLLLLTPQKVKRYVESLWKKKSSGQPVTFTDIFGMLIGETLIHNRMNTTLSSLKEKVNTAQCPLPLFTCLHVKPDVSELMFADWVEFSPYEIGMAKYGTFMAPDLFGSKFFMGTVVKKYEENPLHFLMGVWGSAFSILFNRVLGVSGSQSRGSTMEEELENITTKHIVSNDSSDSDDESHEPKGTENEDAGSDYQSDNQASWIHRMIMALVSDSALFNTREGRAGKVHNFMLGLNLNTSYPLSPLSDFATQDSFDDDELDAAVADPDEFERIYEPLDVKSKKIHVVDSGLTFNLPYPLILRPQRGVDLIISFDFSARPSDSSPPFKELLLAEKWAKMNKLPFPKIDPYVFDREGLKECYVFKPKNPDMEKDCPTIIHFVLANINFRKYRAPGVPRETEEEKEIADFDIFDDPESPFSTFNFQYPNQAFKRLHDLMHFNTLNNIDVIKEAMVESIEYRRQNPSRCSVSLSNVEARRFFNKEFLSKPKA
Description: The substrate, sonicated liposomes containing 1-palmitoyl-2 ^14 C!arachidonoyl-sn-glycerol-3-phosphocholine ( ^14 C!PC, 55 mCi/mmol from NEN Research Products) and sn-1,2-dioleoylglycerol (DG, Avanti Polar Lipids, Birmingham, Ala.) at a molar ratio of 2:1, are prepared as follows. ^14 C!PC (20 nmol, 1×10^6 dpm, 50 uCi/ml in toluene/ethanol) and DG (10 nmol, 100 ug/ml in chloroform) are dried under nitrogen. The lipids are dispersed in 1 ml of 150 mM NaC1, 50 mM Hepes, pH 7.5 (assay buffer) by sonication at 4° C., with Microson probe-sonicator (Heat Systems Ultrasonics) for 4×15 seconds, with 45 second intervals. Bovine serum albumin (essentially fatty acid free, from a 100 mg/ml stock in water, Sigma) is added to a final concentration of 4 mg/ml. Samples to be assayed for cPLA2 activity are incubated with 50 ul liposomes (0.5 nmol ^14 C!PC, 50,000 dpm containing 0.25 nmol of DG) in a total volume of 0.2 ml of assay buffer containing 1 mM CaCl2 and 1 mM 2-ME. Incubations are carried out at 37° C. for 15 minutes and terminated by adding 2 ml of Dole's reagent (2-propanol/heptane/0.5M sulfuric acid, 40:10:1 containing 10 ug/ml of stearic acid). After mixing, 1.2 ml of heptane and 1 ml of water are added. […] After addition of 10 ml of a liquid scintillation cocktail (Ready Protein+, Beckman) radioactivity is counted using a Beckman liquid scintillation counter Model LS 7000. […]

cPLA2 [3] = target: T1, cPLA2; test: cPLA2 Enzymatic Activity Assay, 14C-PC/DG liposome substrate; format: biochemical
Description: The substrate, sonicated liposomes containing 1-palmitoyl-2 ^14 C!arachidonoyl-sn-glycerol-3-phosphocholine ( ^14 C!PC, 55 mCi/mmol from NEN Research Products) and sn-1,2-dioleoylglycerol (DG, Avanti Polar Lipids, Birmingham, Ala.) at a molar ratio of 2:1, are prepared as follows. ^14 C!PC (20 nmol, 1×10^6 dpm, 50 uCi/ml in toluene/ethanol) and DG (10 nmol, 100 ug/ml in chloroform) are dried under nitrogen. The lipids are dispersed in 1 ml of 150 mM NaC1, 50 mM Hepes, pH 7.5 (assay buffer) by sonication at 4° C., with Microson probe-sonicator (Heat Systems Ultrasonics) for 4×15 seconds, with 45 second intervals. Bovine serum albumin (essentially fatty acid free, from a 100 mg/ml stock in water, Sigma) is added to a final concentration of 4 mg/ml. Samples to be assayed for cPLA2 activity are incubated with 50 ul liposomes (0.5 nmol ^14 C!PC, 50,000 dpm containing 0.25 nmol of DG) in a total volume of 0.2 ml of assay buffer containing 1 mM CaCl2 and 1 mM 2-ME. Incubations are carried out at 37° C. for 15 minutes and terminated by adding 2 ml of Dole's reagent (2-propanol/heptane/0.5M sulfuric acid, 40:10:1 containing 10 ug/ml of stearic acid). After mixing, 1.2 ml of heptane and 1 ml of water are added. The mixtures are briefly vortexed and the upper phase transferred to tubes containing 2 ml of heptane and 150 mg of Bio-Sil (Bio-Rad Laboratories) activated at 130° C. before use. The tubes are thoroughly vortexed and centrifuged (1000×g for 5 minutes). The supernatants are decanted into scintillation vials. After addition of 10 ml of a liquid scintillation cocktail (Ready Protein+, Beckman) radioactivity is counted using a Beckman liquid scintillation counter Model LS 7000. High radioactive counts correlate with enzymatic activity. The chromogenic cPLA2 enzyme assay used is analogous to Reynolds et al., Analytical Biochemistry, 217, 25-32 ([…]).
as §1

5-lipoxygenase = target: T2, 5-lipoxygenase (Homo sapiens, UniProt P09917); test: 5-Lipoxygenase (5-LPO) Assay: inhibition of leukotriene B4 formation by human neutrophil 20,000×g supernatant; format: biochemical
T2 construct: The resultant supernatant containing the cytosolic 5-lipoxygenase activity is stored frozen; from tissue; host or cells: peripheral blood neutrophils, 20,000×g supernatant of sonicate
T2 sequence (P09917 1-674): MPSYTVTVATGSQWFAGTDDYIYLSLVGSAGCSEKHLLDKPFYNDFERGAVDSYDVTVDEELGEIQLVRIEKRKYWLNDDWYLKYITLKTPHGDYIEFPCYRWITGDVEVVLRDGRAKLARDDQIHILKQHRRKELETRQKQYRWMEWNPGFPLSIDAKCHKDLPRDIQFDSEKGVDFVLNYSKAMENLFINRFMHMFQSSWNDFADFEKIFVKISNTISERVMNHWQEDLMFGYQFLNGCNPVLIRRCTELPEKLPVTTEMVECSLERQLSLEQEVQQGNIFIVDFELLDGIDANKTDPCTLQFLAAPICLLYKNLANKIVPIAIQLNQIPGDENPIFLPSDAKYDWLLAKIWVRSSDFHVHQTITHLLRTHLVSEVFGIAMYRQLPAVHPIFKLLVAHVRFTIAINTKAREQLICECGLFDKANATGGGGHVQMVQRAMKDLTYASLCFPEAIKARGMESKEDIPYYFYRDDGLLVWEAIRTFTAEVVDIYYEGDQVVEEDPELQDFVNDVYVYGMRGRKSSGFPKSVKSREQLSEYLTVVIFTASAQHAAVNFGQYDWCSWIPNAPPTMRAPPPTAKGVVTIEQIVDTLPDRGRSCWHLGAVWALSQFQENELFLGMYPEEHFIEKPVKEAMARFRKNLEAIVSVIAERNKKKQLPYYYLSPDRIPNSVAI
Description: To determine the effect of compounds on 5-lipoxygenase activity, peripheral blood neutrophils are separated by density centrifugation as described (Marder et al., Prostaglandins Leukot. and Essent. Fatty Acids 46, 265-270, 1992) and the cytosolic 5-lipoxygenase is prepared from isolated neutrophils according to a modification of Carter et al., (J. Pharmacolo Exp. Thero 256, 929-937 (1991)). Briefly, neutrophils are washed twice in buffer (in millimolar: PIPES, 10; BES, 10; and EDTA, 1; pH 6.8) and diluted to 2.5×10^7 cells/ml. Cells are disrupted with sonication and the cytosolic fraction obtained by centrifugation at 20,000×g for 20 min. at 4° C. The resultant supernatant containing the cytosolic 5-lipoxygenase activity is stored frozen at -70° C. prior to use. Compounds are evaluated for 5-lipoxygenase inhibitory activity. Varying concentration of compounds in 200 ml aliquots containing 50 ml of human 20,000×g supernatant in assay buffer (in millimolar: PIPES, 10; BES, 10; EDTA, 1; NaCl, 100; ATP, 1.56; and CaCl2, 2.5; pH 6.8) containing 3.0 mM AA are used. The reaction proceeds for 5 minutes at 37° C. and is terminated upon the addition of 50 ml EDTA (250 mM). The percent inhibition of leukotriene B4 is determined for each concentration of test compound as compared to vehicle (containing no compound) control. The concentration representing 50% inhibition (IC50) is determined by standard mathematical techniques. Leukotriene B4 is determined by EIA. EIA reagents were purchased from Caymen Chemical Co. (Ann Arbor, Mich.) and used according to the assay procedures as outlined therein.

[4] = test system: thromboxane B2 (TxB2) production, human plasma-depleted blood; test: Inhibition of TxB2 production by plasma-depleted blood; format: cell-based; settings: read-out: Plasma DPLTD Blood TxB2 (IC50)
Description: Compounds are evaluated for their ability to inhibit production of leukotriene B4 (LTB4) and thromboxane B2 (TxB2) upon stimulation of human plasma-depleted blood with formyl-methionyl-leucyl-phenylalanine (FMLP) and thrombin. LTB4 is produced by neutrophils and TxB2 by platelets stimulated at their respective receptors with FMLP and thrombin. The assay is carried out in 1 ml deep well polypropylene 96-well plates (Beckman). For the tests ten ml of blood is collected in EDTA at a final concentration of 1.5 mg/ml. Then, 40 ml glucose phosphate buffer containing 0.1% gelatin is added and the suspension centrifuged at 900 g for 10 minutes at room temperature. The supernatant is discarded and the cells washed once with 50 ml buffer before resuspending them in 50 ml Krebs-Ringers-Henseleit Buffer containing 0.1% gelatin, 1 mM CaCl2, 1.1 mM MgCl2 (KRH buffer). Working solutions of test compounds are made by dissolving the material in DMSO at 10 mM and diluting with appropriate amounts of KRH buffer. An agonist solution is made containing 1 μM FMLP (sigma) and 10 units/ml of thrombin in KRH buffer (Enzyme Research Labs). […] The amount of LTB4 and TxB2 produced is determined by the use of a competitive enzyme immunoassay using commercial reagents from Cayman Chemical. […]

## O=C(c1ccc(-c2ccccc2)cc1)c1c(-c2ccc(O)cc2)sc2cc(O)ccc12 [Example 1, 6-hydroxyphenyl-2-(p-hydroxyphenyl)-(benzo(B)thien-3-yl)(p-phenyl)phenyl methanone]
[1]
  CC50: > 10 µM
cPLA2 [2]
  IC50: 146 µM
cPLA2 [3]
  IC50: < 1.2 µM

## O=C(c1ccccc1)c1c(-c2ccc(O)cc2)sc2cc(O)ccc12 [Compound A]
[1]
  CC50: 0.3 µM
cPLA2 [3]; 14C-PC/DG liposomes, 37° C., 15 min, pH 7.5, read-out: C-PLA2 Enzyme, C14PC/DA6 (IC50)
  IC50: 7.3 ± 0.5 µM

## Oc1ccc(-c2cc3ccc(O)cc3s2)cc1 [Compound B]
[1]
  CC50: < 10 µM
cPLA2 [3]
  IC50: 7 ± 0.8 µM
5-lipoxygenase
  IC50: 0.2 ± 0.007 µM

## O=C(c1ccc(O)cc1)c1c(-c2ccc(O)cc2)sc2cc(O)ccc12 [Compound D]
[4]
  IC50: > 9.8 µM

## O=C(c1ccc2ccccc2c1)c1c(-c2ccc(O)cc2)sc2cc(O)ccc12 [Example 3, 6-hydroxyphenyl-2-(p-hydroxyphenyl)-(benzo(B)thien-3-yl)(β-napthyl)methanone]
[1]
  CC50: > 10 µM
cPLA2 [2]
  IC50: 122 µM
cPLA2 [3]
  IC50: 2.3 ± 0.6 µM
5-lipoxygenase
  IC50: 1 ± 0.5 µM

## O=C(c1cccc2ccccc12)c1c(-c2ccc(O)cc2)sc2cc(O)ccc12 [Example 2, 6-hydroxyphenyl-2-(p-hydroxyphenyl)-(benzo(B)thien-3-yl)(α-napthyl)methanone]
[1]
  CC50: > 10 µM
cPLA2 [3]
  IC50: 4.8 ± 1.6 µM
5-lipoxygenase
  IC50: 1.7 ± 0.9 µM
